US20080090847A1, “HETEROCYCLIC COMPOUNDS AND USES THEREOF AS D-ALANYL-D-ALANINE LIGASE INHIBITORS” (PLIVA D.D., priority 2001, published 2008)
Read-outs that look alike come from different tables or passages of the source.

Legend:
Format in all cases: biochemical
[1] = biological target: E. coli ligase (D-Ala-D-Ala ligase) (Escherichia coli, UniProt P07862); assay: D-Ala-D-Ala ligase Ki determination (PK/LDH coupled assay), E. coli ligase
Source text: (§1) Inhibition of D-Ala-D-Ala ligase can be assayed for using the pyruvate kinase/lactate dehydrogenase (PK/LDH) assay described in Example 2, and as described in the literature (e.g., in Sarthy et al., Anal. Biochem., 254:288-290, 1997). In the bacterial cell wall synthesis process, the ligase catalyzes the conversion of adenosine triphosphate (ATP) to adenosine diphosphate (ADP) concurrent with the ligation of two D-alanine residues to form D-alanyl-D-alanine. PK then regenerates ATP from the ADP thus created simultaneously with the conversion of phosphopyruvate to pyruvate. LDH catalyzes the reduction of pyruvate to lactate by converting NADH to NAD^+. By monitoring the production rate of NAD^+ (e.g., using UV/Vis spectroscopy), D-Ala-D-Ala ligase activity can be ascertained.
(§2) The protein sequence for the enzyme D-ala-D-ala ligase has been determined in a variety of different bacterial species using standard techniques in biochemistry (see Table 5). The protein sequence from any species can be overexpressed in an appropriate host organism such as E. coli using standard molecular biology techniques. The ligase enzyme can be harvested, purified, and used in the above described assay for the determination of inhibitory activity.
(§3) The synthetic analogs of Example 1 were dissolved in dimethylsulfoxide (DMSO) at a concentration of 100 mM on the day of screening, using a vortex mixer and sonication if necessary for dissolution. The solutions were kept at room temperature until screening was completed.
(§4) A 10 mM NADH (Sigma) stock solution was prepared freshly on the day of screening by dissolving 32 μmol NADH in 3.2 ml double-distilled water. The NADH solution was kept on ice. Stock solutions containing 50 mM phosphoenolpyruvate (PEP; Sigma), 500 μM HERMES, 30 mM adenosine triphosphate (ATP; Sigma), 200 mM D-alanine (Sigma), and 4× core buffer (i.e., 400 mM Hepes, 40 mM magnesium chloride, and 40 mM potassium chloride), were also stored on ice. A stock solution of pyruvate kinase/lactate dehydrogenase (PK/LDH) was also obtained from Sigma.
(§5) Table of Final concentrations are dependent on the type of screening:
(§6) For each set of test compounds, two 96-well plates were used: an inhibitor plate and an enzyme plate. The test compounds correspond to rows A-G of the plates. Adenosine (Sigma) dissolved in DMSO, used as a control, corresponds to row H of each plate.
(§7) The enzyme solution was allowed to equilibrate to 25° C.
(§8) Dilutions were prepared in the inhibitor plate as follows: 50 μl DMSO was added to each well of columns 1-11, rows A-G, of the inhibitor plate. 50 μl DMSO were added to each well of columns 1-11, row H. 100 μl of the 100 mM test solutions were added to column 12, rows A-G (i.e., the first compound in row A, the second compound in row B, and so on). 100 μl of a 100 mM Adenosine solution was added to column 12, row H.
(§9) 50 μl of the test solution was transferred from column 12 in each row to column 11 of the a same row, mixing the solution with the DMSO. 50 μl of solution was then transferred from column 11 in each row to column 10 in the same row, 50 μl from column 10 was transferred to column 9, and so on, down to column 2. No solution was transferred to column 1. Multichannel pipettors were used in making the serial dilution.
(§10) 120 μl of the enzyme solution was added to each well of the enzyme plate.
(§11) The substrate solutions were brought to 25° C.
(§12) The analogs and enzymes were then incubated at 25° C. Since the reactions were initiated in columns, the analog addition is also in columns. At t=0 minutes, 5 μl analog was transferred from each well of columns 1-4 of the inhibitor plate to the corresponding well of the enzyme plate. At t=4 minutes, 5 μl analog was transferred from each well of columns 5-8 of the inhibitor plate to the corresponding well of the enzyme plate. At t=8 minutes, 5 μl analog was transferred from each well of columns 9-12 of the inhibitor plate to the corresponding well of the enzyme plate. The inhibitor plate was then frozen. […]

[2] = biological target: Staph ligase (D-Ala-D-Ala ligase) (Staphylococcus aureus, UniProt Q5HEB7); assay: D-Ala-D-Ala ligase Ki determination (PK/LDH coupled assay), Staph ligase; conditions: Ki/ATP, avg, read-out: Staph ligase Ki/ATP (uM) avg
Source text: as §1, §2, §3, §4, §5, §6, §7, §8, §9, §10, §11, §12

[3] = biological target: H. Influenzae ligase (D-Ala-D-Ala ligase) (Haemophilus influenzae, UniProt P44405); assay: D-Ala-D-Ala ligase Ki determination (PK/LDH coupled assay), H. influenzae ligase; conditions: Ki/ATP, avg, read-out: H. Influenzae ligase Ki/ATP (uM) avg
Source text: as §1, §2, §3, §4, §5, §6, §7, §8, §9, §10, §11, §12

[4] = biological target: T1, Strep ligase (D-Ala-D-Ala ligase) (Streptococcus pneumoniae serotype 4, UniProt P0CB57); assay: D-Ala-D-Ala ligase Ki determination (PK/LDH coupled assay), Strep ligase; conditions: Ki/ATP, avg, read-out: Strep ligase Ki/ATP (uM) avg
T1 sequence (P0CB57 1-347): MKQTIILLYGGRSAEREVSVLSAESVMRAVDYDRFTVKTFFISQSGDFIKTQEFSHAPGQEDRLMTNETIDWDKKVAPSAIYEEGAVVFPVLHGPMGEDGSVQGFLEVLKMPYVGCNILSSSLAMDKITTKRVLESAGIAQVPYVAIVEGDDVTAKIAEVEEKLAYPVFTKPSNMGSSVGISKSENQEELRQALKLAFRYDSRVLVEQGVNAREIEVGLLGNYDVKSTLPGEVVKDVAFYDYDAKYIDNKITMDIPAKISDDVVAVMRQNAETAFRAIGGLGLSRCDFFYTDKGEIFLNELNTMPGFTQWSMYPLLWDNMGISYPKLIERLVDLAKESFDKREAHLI
Source text: as §1, §2, §3, §4, §5, §6, §7, §8, §9, §10, §11, §12

[5] = biological target: T2, 4 ligases in the panel (D-Ala-D-Ala ligase); assay: Ligase panel statements (ligases not individually named); conditions: 3 of the 4 ligases; read-out: Ki's against 3 of the 4 ligases in the panel
T2 construct: rows headed: Ki's against 3 of the 4 ligases in the panel; other: text b65; 3 of the 4 ligases
Source text: as §1, §2, §3
(§13) A 10 mM NADH (Sigma) stock solution was prepared freshly on the day of screening by dissolving 32 μmol NADH in 3.2 ml double-distilled water. The NADH solution was kept on ice. […]
(§14) Plots of reaction rates vs. inhibitor concentration were generated using Kaleidograph®, and Ki values were determined after the data was fitted to the proper equation.

[6] = tested on: T3, 4 ligases in the panel (D-Ala-D-Ala ligase); assay: as above
T3 construct: rows headed: ligase panel activity (in words); other: text b65
Source text: as §1, §2, §3, §13, §14

[7] = E. coli ligase Ki/ATP (uM) avg, Table 3, Ki/ATP, avg
[8] = E. coli ligase Ki/ATP (uM) avg, Table 5, Ki/ATP, avg

Staph ligase (D-Ala-D-Ala ligase), sequence (Q5HEB7 whole entry): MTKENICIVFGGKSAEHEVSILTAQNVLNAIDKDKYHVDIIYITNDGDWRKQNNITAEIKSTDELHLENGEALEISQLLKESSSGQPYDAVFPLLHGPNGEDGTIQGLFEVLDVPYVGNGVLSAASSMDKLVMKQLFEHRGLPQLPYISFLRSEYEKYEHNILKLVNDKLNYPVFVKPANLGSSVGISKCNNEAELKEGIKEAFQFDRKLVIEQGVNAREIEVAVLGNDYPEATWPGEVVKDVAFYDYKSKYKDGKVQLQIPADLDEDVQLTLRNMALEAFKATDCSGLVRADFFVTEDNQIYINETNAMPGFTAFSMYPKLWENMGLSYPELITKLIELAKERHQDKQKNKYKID
H. Influenzae ligase (D-Ala-D-Ala ligase), sequence (P44405 whole entry): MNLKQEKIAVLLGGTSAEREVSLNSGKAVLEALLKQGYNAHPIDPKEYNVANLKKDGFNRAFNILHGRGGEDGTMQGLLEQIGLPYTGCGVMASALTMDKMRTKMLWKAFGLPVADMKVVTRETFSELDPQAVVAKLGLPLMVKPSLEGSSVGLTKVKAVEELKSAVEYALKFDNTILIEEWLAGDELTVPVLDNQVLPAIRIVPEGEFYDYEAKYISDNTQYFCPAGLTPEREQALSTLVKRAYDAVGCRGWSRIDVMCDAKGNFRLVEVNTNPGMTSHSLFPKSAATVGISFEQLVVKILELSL

Compound	Ki [1, 7] [µM]	Ki ([2]; Table 3) [µM]	Ki ([3]; Table 3) [µM]	Ki ([4]; Table 3) [µM]	Ki [5] [nM]	ligase panel activity (in words) [6]	Ki [1, 8] [µM]	Ki ([1]; Ki against the ligase isolated from E. coli) [µM]	Ki ([2]; Table 5) [µM]	Ki ([3]; Table 5) [µM]	Ki ([4]; Table 5) [µM]
CCOc1ccc2ccccc2c1CN(CCC(=O)NCc1cccc(CN)c1)c1ncc2c(N)nc(N)nc2n1	5.3	0.9	0.4	0.9	< 1000						
CCOc1ccc2ccccc2c1CN(CCC(=O)NCC(=N)N)c1ncc2c(N)nc(N)nc2n1	1	6.3	0.6	1.4		activity similar to that of the first compound					
CCOc1ccc2ccccc2c1CN(CCC(=O)NCc1ccc(N)cc1)c1ncc2c(N)nc(N)nc2n1	8.7	1.2	1.6	1.6		potent against three ligase species					
CCOc1ccc2ccccc2c1CN(CCCCN)c1ncc2c(N)nc(N)nc2n1 [N7-(4-Amino-butyl)-N-7-(2-ethoxynaphthalen-1-ylmethyl)-pyrimido[4,5-d]pyrimidine-2,4,7-triamine]							0.105	0.102	15	0.52	4.5
CC(c1cccc2ccccc12)N(CCCCN)c1ncc2c(N)nc(N)nc2n1 (stereo not drawn) [drawing 55]							0.135		32	4.2	23.1
